Data from BindingDB's records for doi:10.1016/j.ejmech.2017.05.061 (The University of Queensland, 2017).

Columns and labels:
[1] = molecular target: T1, Metallo-beta-lactamase AIM-1 (Pseudomonas aeruginosa, UniProt B5DCA0); assay: Competitive inhibition of Pseudomonas aeruginosa recombinant AIM1 expressed in Escherichia coli BL21(DE3) using cefuroxime as substrate by UV/Vis multi-plate spectrophotometric method
T1 sequence (B5DCA0 whole entry): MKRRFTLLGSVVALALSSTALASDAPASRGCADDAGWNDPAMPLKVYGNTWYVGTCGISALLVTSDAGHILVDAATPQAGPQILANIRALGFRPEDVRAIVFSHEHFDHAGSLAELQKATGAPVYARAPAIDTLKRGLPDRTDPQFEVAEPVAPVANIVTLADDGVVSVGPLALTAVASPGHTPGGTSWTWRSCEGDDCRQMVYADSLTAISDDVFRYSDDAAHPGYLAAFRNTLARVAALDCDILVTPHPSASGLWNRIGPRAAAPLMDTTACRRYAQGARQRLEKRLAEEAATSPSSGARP

[2] = molecular target: Metallo-beta-lactamase type 2 (Aeromonas hydrophila, UniProt P26918); assay: Competitive inhibition of Aeromonas hydrophila recombinant CphA expressed in Escherichia coli BL21(DE3) using meropenem as substrate by UV/Vis multi-plate spectrophotometric method
Sequence of Metallo-beta-lactamase type 2 (P26918 whole entry): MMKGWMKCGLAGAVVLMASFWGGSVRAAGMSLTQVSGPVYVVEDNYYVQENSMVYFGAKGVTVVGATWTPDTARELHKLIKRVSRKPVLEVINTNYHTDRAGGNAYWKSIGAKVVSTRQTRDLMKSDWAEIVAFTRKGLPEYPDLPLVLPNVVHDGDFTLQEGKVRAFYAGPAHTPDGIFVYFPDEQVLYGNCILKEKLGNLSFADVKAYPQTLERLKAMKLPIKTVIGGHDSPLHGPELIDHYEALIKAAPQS

Row | Structure (SMILES) | Ki [1] [µM] | Ki [2] [µM]
1 | N#Cc1c(-c2ccccc2)c(-c2ccccc2)n(Cc2ccccc2)c1N | 2.2 | 52
2 | N#Cc1c(-c2ccccc2)c(-c2ccccc2)n(Cc2ccccc2)c1NC(=O)c1ccc([N+](=O)[O-])cc1 | 10.9 | –
3 | N#Cc1c(-c2ccccc2)c(-c2ccccc2)n(Cc2ccccc2)c1NC(=O)c1ccccc1 | 1.6 | 11
4 | N#Cc1c(-c2ccccc2)c(-c2ccccc2)n(Cc2ccccc2)c1NC(=O)c1ccc(C(=O)c2ccccc2)cc1 | – | 872
